ChEMBL document CHEMBL1157444, “Sucutiniranes A and B, new cassane-type diterpenes from Bowdichia nitida” (Bioorg Med Chem Lett, 2008)
Converted amounts (≈) assume the structure as drawn. The source made the active and inactive calls. No cut-off for these calls is given here.

Legend:
[1] = Cytotoxicity against human COLO201 cells; assay type: cell-based; conditions: COLO 201
Plasmodium falciparum [2] = test: Antiplasmodial activity against Plasmodium falciparum 3D7 at 1 ug/mL; assay type: functional, organism-based
Plasmodium falciparum [3] = test: Antiplasmodial activity against Plasmodium falciparum 3D7; assay type: functional, organism-based

CC(=O)O[C@H]1C[C@@H]2[C@H]([C@H](O)[C@]3(C=COC3=O)[C@@H]2C)[C@@]2(C)CCCC(C)(C)[C@H]12
IC50 [1]: > 100 µg/mL
Activity (Plasmodium falciparum [2]): inactive

CC(=O)O[C@H]1C[C@H]2[C@@H](C)c3ccoc3C[C@@H]2[C@@]2(C)CCCC(C)(C)[C@H]12
IC50 [1]: 86.6 µg/mL (≈ 251 µM)
Activity (Plasmodium falciparum [2]): inactive

CC(=O)O[C@H]1C[C@H]2[C@@H](C)C3=CC(=O)O[C@@H]3C[C@@H]2[C@@]2(C)CCCC(C)(C)[C@H]12 [12-DEOXY-SUCUTINIRANE A]
IC50 [1]: > 100 µg/mL
Activity (Plasmodium falciparum [2]): inactive

CC(=O)O[C@H]1C[C@@H]([C@@H](C)C2=CC(=O)OC2)[C@H](C=O)[C@@]2(C)CCCC(C)(C)[C@H]12
IC50 [1]: > 100 µg/mL
Activity (Plasmodium falciparum [2]): inactive

CC(=O)O[C@H]1C[C@H]2[C@@H](C)C3=CC(=O)O[C@]3(O)C[C@@H]2[C@@]2(C)CCCC(C)(C)[C@H]12 [SUCUTINIRANE A]
IC50 [1]: 37.3 µg/mL (≈ 99.1 µM)
Activity (Plasmodium falciparum [2]): inactive

CC(=O)O[C@H]1[C@H](OC(C)=O)[C@H]2C(C)(C)CCC[C@]2(C)[C@H]2Cc3occc3[C@H](C)[C@H]12
IC50 [1]: > 100 µg/mL
IC50 (Plasmodium falciparum [3]): 0.39 µg/mL (≈ 0.969 µM)
